Measurements reported in patent publication US8471005B2 (Cephalon, Inc., priority 2008, dated 2013).
Read-outs that look alike come from different tables or passages of the source.

Columns and labels:
ALK = biological target: T1, ALK (Homo sapiens, UniProt Q9UM73); experiment: ALK Kinase Assay (ELISA/TRF, PLC-γ substrate); assay type: biochemical; conditions: read-out: ALK Potency
T1 construct: host or cells: baculovirus expression system
Summary of the method: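 First, plates are coated with substrate (phospholipase C-γ, 10 μg/mL, TBS). Next, 30 ng/ml ALK initiates phosphorylation for 15 min at 37° C. Then Eu-N1 PT66 antibody is added for detection, and a nonlinear dose-response fit of percent inhibition yields IC50.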

JAK2 = biological target: T2, JAK2 (Homo sapiens, UniProt O60674); experiment: Recombinant Human JAK2 Kinase Assay (TRF); assay type: biochemical; conditions: read-out: JAK2 Potency
T2 construct: host or cells: baculovirus expression system
T2 sequence (O60674 whole entry): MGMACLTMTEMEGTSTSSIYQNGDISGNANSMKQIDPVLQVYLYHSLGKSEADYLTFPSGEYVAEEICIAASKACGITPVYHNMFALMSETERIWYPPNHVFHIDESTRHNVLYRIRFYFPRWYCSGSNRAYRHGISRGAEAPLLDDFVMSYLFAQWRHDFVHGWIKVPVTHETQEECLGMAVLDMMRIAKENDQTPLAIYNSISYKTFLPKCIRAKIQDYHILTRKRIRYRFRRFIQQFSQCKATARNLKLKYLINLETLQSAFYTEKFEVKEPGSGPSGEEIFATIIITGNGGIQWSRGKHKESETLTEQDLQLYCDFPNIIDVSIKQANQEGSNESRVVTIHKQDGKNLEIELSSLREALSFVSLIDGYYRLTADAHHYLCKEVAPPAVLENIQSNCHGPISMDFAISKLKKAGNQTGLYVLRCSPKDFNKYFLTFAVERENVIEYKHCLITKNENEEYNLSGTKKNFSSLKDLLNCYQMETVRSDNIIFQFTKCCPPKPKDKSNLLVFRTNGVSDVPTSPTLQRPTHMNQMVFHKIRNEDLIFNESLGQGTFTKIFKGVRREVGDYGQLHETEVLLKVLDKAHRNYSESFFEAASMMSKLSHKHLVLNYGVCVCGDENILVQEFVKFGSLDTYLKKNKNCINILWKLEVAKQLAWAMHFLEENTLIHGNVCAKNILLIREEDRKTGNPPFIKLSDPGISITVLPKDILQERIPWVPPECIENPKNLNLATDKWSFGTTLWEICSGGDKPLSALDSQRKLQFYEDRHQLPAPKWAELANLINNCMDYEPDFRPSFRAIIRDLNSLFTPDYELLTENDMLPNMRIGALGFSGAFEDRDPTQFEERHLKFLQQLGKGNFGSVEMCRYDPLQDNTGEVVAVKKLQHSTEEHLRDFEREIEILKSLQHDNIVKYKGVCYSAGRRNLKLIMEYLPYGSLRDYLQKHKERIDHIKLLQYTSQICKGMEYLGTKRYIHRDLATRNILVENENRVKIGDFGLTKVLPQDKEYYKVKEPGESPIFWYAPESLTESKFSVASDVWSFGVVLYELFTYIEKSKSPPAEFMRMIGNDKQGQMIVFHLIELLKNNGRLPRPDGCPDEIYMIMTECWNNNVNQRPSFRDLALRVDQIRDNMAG
Summary of the method: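 TRF read-out: Eu-N1 PY100 anti-phosphotyrosine antibody detects product. Enzyme is baculovirus-expressed JAK2 at 15 ng/ml; substrate is a biotinyl 15-mer peptide bound to Neutravidin-coated wells. Buffer 20 mM HEPES pH 7.2, 0.2 μM ATP, 1 mM MnCl2, 0.1% BSA, 2.5% DMSO final; 20 min, RT.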

[1] = ALK kinase inhibition, 1 μM ATP
[2] = JAK2 kinase inhibition, 0.2 μM ATP

T1 sequence (Q9UM73 19-1620): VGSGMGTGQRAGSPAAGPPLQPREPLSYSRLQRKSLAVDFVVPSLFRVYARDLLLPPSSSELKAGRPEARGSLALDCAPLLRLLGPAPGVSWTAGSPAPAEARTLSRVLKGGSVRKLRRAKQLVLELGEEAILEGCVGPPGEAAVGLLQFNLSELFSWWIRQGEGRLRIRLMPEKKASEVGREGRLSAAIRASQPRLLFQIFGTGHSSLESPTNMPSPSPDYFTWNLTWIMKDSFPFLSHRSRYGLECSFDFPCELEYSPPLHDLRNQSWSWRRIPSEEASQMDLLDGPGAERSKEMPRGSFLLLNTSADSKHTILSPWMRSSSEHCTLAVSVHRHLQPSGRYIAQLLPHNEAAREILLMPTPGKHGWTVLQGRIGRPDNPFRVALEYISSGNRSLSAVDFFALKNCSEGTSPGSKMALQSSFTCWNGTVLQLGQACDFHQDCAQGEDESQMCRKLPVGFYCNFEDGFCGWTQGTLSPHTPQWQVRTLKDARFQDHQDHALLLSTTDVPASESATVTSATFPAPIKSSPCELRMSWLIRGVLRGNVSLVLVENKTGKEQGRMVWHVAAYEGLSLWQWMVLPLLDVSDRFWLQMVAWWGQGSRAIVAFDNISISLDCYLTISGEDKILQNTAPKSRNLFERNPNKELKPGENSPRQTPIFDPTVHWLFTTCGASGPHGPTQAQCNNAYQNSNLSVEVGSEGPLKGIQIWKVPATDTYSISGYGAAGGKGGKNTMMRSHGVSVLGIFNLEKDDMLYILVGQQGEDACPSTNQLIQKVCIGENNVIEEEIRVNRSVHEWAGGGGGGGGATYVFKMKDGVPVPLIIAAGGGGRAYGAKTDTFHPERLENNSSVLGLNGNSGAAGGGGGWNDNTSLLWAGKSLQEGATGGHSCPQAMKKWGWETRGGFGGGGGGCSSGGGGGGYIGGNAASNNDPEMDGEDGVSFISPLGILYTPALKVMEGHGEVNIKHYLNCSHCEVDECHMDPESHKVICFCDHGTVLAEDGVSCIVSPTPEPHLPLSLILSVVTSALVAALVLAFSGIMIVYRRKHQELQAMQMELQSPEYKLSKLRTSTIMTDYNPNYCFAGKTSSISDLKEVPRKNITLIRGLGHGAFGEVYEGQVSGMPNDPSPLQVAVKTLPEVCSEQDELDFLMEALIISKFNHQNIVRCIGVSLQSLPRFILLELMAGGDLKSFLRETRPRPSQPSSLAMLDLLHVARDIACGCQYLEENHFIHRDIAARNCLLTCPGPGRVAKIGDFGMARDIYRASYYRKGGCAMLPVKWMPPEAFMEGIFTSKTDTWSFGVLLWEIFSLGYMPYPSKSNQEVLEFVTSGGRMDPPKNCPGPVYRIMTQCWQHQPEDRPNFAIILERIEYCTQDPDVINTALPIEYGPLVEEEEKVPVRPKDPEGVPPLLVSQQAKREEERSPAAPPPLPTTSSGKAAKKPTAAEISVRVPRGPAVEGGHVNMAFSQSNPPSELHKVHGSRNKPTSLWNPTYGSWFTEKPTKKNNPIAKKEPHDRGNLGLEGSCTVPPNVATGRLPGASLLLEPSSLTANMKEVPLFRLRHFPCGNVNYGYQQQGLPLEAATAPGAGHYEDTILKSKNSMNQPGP

SMILES	IC50 (ALK; ALK Kinase Inhibition)	IC50 (JAK2; JAK2 Kinase Inhibition)	IC50 (ALK; [1])	IC50 (JAK2; [2])
O=C(NCCCN1CCCC1)c1ccc(-c2ccc3cnc(Nc4ccc(N5CCOCC5)cc4)nn23)cc1 [Example 54, 4-[2-(4-Morpholin-4-yl-phenylamino)-pyrrolo[2,1-f][1,2,4]triazin-7-yl]-N-(3-pyrrolidin-1-yl-propyl)-benzamide]	100 to 1000 nM	< 100 nM		
c1cc2c(c(-c3ccc4cnc(Nc5cnn(C6CCNCC6)c5)nn34)c1)OCC2 [Example 715, [7-(2,3-Dihydrobenzofuran-7-yl)pyrrolo[2,1-f][1,2,4]triazin-2-yl]-(1-piperidin-4-yl-1H-pyrazol-4-yl)amine]			100 to 1000 nM	< 100 nM
CS(=O)(=O)c1cccc(-c2ccc3cnc(Nc4cccc(C5(O)CCNCC5)c4)nn23)c1 [Example 1552, 4-{3-[7-(3-Methanesulfonyl-phenyl)-pyrrolo[2,1-f][1,2,4]triazin-2-ylamino]-phenyl}-piperidin-4-ol]	100 to 1000 nM	< 100 nM		
CC(=O)Nc1cccc(Nc2ncc3ccc(-c4cccc(NC(=O)C(C)(C)C)c4)n3n2)c1 [Example 881, N-{3-[2-(3-Acetylamino-phenylamino)-pyrrolo[2,1-f][1,2,4]triazin-7-yl]-phenyl}-2,2-dimethyl-propionamide]			1000 to 10000 nM	< 100 nM
COc1cc(N2CCC(N3CCOCC3)CC2)ccc1Nc1ncc2ccc(-c3cccc4c3OCCO4)n2n1 [Example 546, [7-(2,3-Dihydro-1,4-benzodioxin-5-yl)-pyrrolo[2,1-f][1,2,4]triazin-2-yl]-[2-methoxy-4-(4-morpholin-4-yl-piperidin-1-yl)-phenyl]-amine]			< 100 nM	< 100 nM
c1ccc(-c2ccc3cnc(Nc4ccc5nc[nH]c5c4)nn23)nc1 [Example 1562, (3H-Benzimidazol-5-yl)-(7-pyridin-2-yl-pyrrolo[2,1-f][1,2,4]triazin-2-yl)-amine]	1000 to 10000 nM	< 100 nM		
CN1CCN(C)C(c2ccc(Nc3ncc4ccc(-c5ccccc5N(C)S(C)(=O)=O)n4n3)cc2)C1=O (stereo not shown) [Example 1073, N-(2-{2-[4-(1,4-Dimethyl-3-oxo-piperazin-2-yl)-phenylamino]-pyrrolo[2,1-f][1,2,4]triazin-7-yl}-phenyl)-N-methyl-methanesulfonamide]			100 to 1000 nM	< 100 nM
COc1cc(C2(C#N)CCC(N3CCOCC3)CC2)ccc1Nc1ncc2ccc(-c3ccccc3OC)n2n1 (stereo not drawn) [Example 1246, trans-1-[3-methoxy-4-[[7-(2-methoxyphenyl)pyrrolo[2,1-f][1,2,4]triazin-2-yl]amino]phenyl]-4-morpholino-cyclohexanecarbonitrile]			< 100 nM	100 to 1000 nM
CN1CCN(c2cccc(Nc3ncc4ccc(-c5cccc(Cl)c5)n4n3)c2)CC1 [Example 161, [7-(3-Chloro-phenyl)-pyrrolo[2,1-f][1,2,4]triazin-2-yl]-[3-(4-methyl-piperazin-1-yl)-phenyl]-amine]	100 to 1000 nM	< 100 nM		
COCCN1CCc2cc(Nc3ncc4ccc(-c5ccccc5OC)n4n3)c(OC)cc2CC1 [Example 48, [8-Methoxy-3-(2-methoxy-ethyl)-2,3,4,5-tetrahydro-1H-benzo[d]azepin-7-yl]-[7-(2-methoxy-phenyl)-pyrrolo[2,1-f][1,2,4]triazin-2-yl]-amine]	< 100 nM	100 to 1000 nM		
CN(c1ccccc1-c1ccc2cnc(Nc3ccc(F)c(N4CCOCC4)c3)nn12)S(C)(=O)=O [Example 388, N-{2-[2-(4-Fluoro-3-morpholin-4-yl-phenylamino)-pyrrolo[2,1-f][1,2,4]triazin-7-yl]-phenyl}-N-methyl-methanesulfonamide]	100 to 1000 nM	< 100 nM		
CN(c1ccccc1-c1ccc2cnc(Nc3ccc4nc(CN5CCOCC5)[nH]c4c3)nn12)S(C)(=O)=O [Example 1517, N-Methyl-N-{2-[2-(2-morpholin-4-ylmethyl-3H-benzimidazol-5-ylamino)-pyrrolo[2,1-f][1,2,4]triazin-7-yl]-phenyl}-methanesulfonamide]	100 to 1000 nM	< 100 nM		
CN1CCN(c2ccc(Nc3ncc4ccc(-c5cccc(NS(C)(=O)=O)c5)n4n3)cn2)CC1 [Example 1122, N-(3-{2-[6-(4-Methyl-piperazin-1-yl)-pyridin-3-ylamino]-pyrrolo[2,1-f][1,2,4]triazin-7-yl}-phenyl)-methanesulfonamide]			100 to 1000 nM	< 100 nM
COc1ccccc1NCc1ccc2cnc(Nc3ccc(N4CCOCC4)cc3)nn12 [Example 364, {7-[(2-Methoxy-phenylamino)-methyl]-pyrrolo[2,1-f][1,2,4]triazin-2-yl}-(4-morpholin-4-yl-phenyl)-amine]	> 10000 nM	< 100 nM		
COc1ccc(Cl)cc1-c1ccc2cnc(Nc3ccc(C(C)(C)C)c(NC(C)=O)c3)nn12 [Example 306, N-{2-tert-Butyl-5-[7-(5-chloro-2-methoxy-phenyl)-pyrrolo[2,1-f][1,2,4]triazin-2-ylamino]-phenyl}-acetamide]	100 to 1000 nM	< 100 nM		

Results, then the compound that gave them:

IC50 (ALK; ALK Kinase Inhibition)	IC50 (JAK2; JAK2 Kinase Inhibition)	IC50 (ALK; [1])	IC50 (JAK2; [2])	SMILES
100 to 1000 nM	< 100 nM			NC(=O)CN1CCC(c2ccc(Nc3ncc4ccc(-c5cccc(N6CCCS6(=O)=O)c5)n4n3)cc2)CC1 [Example 1512, 2-{4-[4-({7-[3-(1,1-Dioxido-1,2-thiazolidin-2-yl)phenyl]pyrrolo[2,1-f][1,2,4]triazin-2-yl}amino)phenyl]piperidin-1-yl}acetamide]
		100 to 1000 nM	< 100 nM	CN1CCN(c2ccc(Nc3ncc4ccc(-c5ccc(C=O)cc5)n4n3)cc2)CC1 [Example 1203, 4-{2-[4-(4-Methyl-piperazin-1-yl)-phenylamino]-pyrrolo[2,1-f][1,2,4]triazin-7-yl}-benzaldehyde]
> 10000 nM	< 100 nM			CS(=O)(=O)c1ccc(-c2ccc3cnc(Nc4ccc5[nH]c(CN6CCOCC6)nc5c4)nn23)cc1 [Example 1541, [7-(4-Methanesulfonyl-phenyl)-pyrrolo[2,1-f][1,2,4]triazin-2-yl]-(2-morpholin-4-ylmethyl-1H-benzimidazol-5-yl)-amine]
		100 to 1000 nM	< 100 nM	CN(c1ccccc1-c1ccc2cnc(Nc3ccc4cnn(C)c4c3)nn12)S(C)(=O)=O [Example 1340, N-Methyl-N-{2-[2-(1-methyl-1H-indazol-6-ylamino)-pyrrolo[2,1-f][1,2,4]triazin-7-yl]-phenyl}-methanesulfonamide]
		< 100 nM	1000 to 10000 nM	COc1cc(Cn2ccnc2C)ccc1Nc1ncc2ccc(-c3ccccc3N(C)S(C)(=O)=O)n2n1 [Example 505, N-(2-{2-[2-Methoxy-4-(2-methyl-imidazol-1-ylmethyl)-phenylamino]-pyrrolo[2,1-f][1,2,4]triazin-7-yl}-phenyl)-N-methyl-methanesulfonamide]
< 100 nM	< 100 nM			CN1CCC2(CCc3cc(Nc4ncc5ccc(-c6cccc(NS(C)(=O)=O)c6)n5n4)ccc3O2)CC1 [Example 378]
> 10000 nM	100 to 1000 nM			COCCOc1ncc2ccc(-c3ccc(S(C)(=O)=O)cc3)n2n1 [Example 197, 7-(4-Methanesulfonyl-phenyl)-2-(2-methoxy-ethoxy)-pyrrolo[2,1-f][1,2,4]triazine]
		< 100 nM	< 100 nM	CCN1CCCC(CC)(c2ccc(Nc3ncc4ccc(-c5ccccc5OC)n4n3)cc2)C1 (racemic) [Example 777, (±)-[4-(1,3-Diethyl-piperidin-3-yl)-phenyl]-[7-(2-methoxy-phenyl)pyrrolo-[2,1-f][1,2,4]triazin-2-yl]-amine]
